Measured values from the NIST ThermoML archive (doi:10.1016/j.jct.2005.02.014).

Assay: molar heat capacity at constant pressure
Details: 101.33 kPa, Crystal

[Gd+3].[Gd+3].[O-2].[O-2].[O-2] [gadolinium sesquioxide]
Details	molar heat capacity at constant pressure [J/K/mol]
5.34 K	4.24
5.84 K	5.88
6.65 K	6.66
8.48 K	4.7
10.16 K	3.95
11.17 K	3.51
11.58 K	3.33
13.24 K	3.19
13.72 K	3.18
14.69 K	3.17
15.56 K	3.2
15.84 K	3.18
16.98 K	3.47
17.06 K	3.5
18.14 K	3.76
18.46 K	3.8
19.29 K	4.28
19.86 K	4.28
20 K	4.32
20.63 K	4.51
21.24 K	4.73
21.97 K	5.08
22.65 K	5.27
23.31 K	5.65
23.91 K	5.87
24.66 K	6.36
25 K	6.55
25.22 K	6.67
26.02 K	7.26
26.08 K	7.21
26.79 K	7.55
27.33 K	7.65
27.99 K	7.92
28.5 K	8.29
29.64 K	8.93
30 K	9.163
31.19 K	9.927
32.73 K	10.96
34.3 K	11.95
35 K	12.42
35.9 K	13.02
37.53 K	13.85
39.19 K	14.85
40 K	15.35
40.87 K	15.9
42.55 K	17.06
44.25 K	18.21
45 K	18.7
45.96 K	19.33
47.7 K	20.45
49.45 K	21.55
50 K	21.9
51.21 K	22.67
52.99 K	23.75
54.78 K	24.86
56.58 K	26
58.39 K	27.1
60 K	28.03
60.22 K	28.16
62.05 K	29.26
63.89 K	30.33
65.75 K	31.37
67.61 K	32.46
69.47 K	33.54
70 K	33.85
71.35 K	34.62
73.23 K	35.69
75.12 K	36.68
77.01 K	37.74
78.91 K	38.79
80 K	39.37
80.81 K	39.79
82.72 K	40.83
83.39 K	41.24
84.63 K	41.9
85.99 K	42.64
86.55 K	42.9
88.47 K	43.84
88.8 K	44.12
90 K	44.63
90.39 K	44.82
91.62 K	45.57
92.32 K	45.88
93.14 K	46.35
93.67 K	46.53
94.25 K	46.87
94.44 K	46.97
94.91 K	47.23
96.18 K	47.87
96.86 K	48.18
97.27 K	48.4
98.12 K	48.9
98.79 K	49.39
100 K	50.12
100.06 K	50.15
100.11 K	50.21
100.72 K	50.42
102.65 K	51.08
102.97 K	51.17
104.58 K	51.98
105.83 K	52.6
106.52 K	53
108.46 K	54.02
108.7 K	54.13
110.4 K	54.87
111.58 K	55.27
112.35 K	55.75
114.3 K	56.56
114.46 K	56.66
116.25 K	57.42
117.35 K	57.9
118.2 K	58.29
120 K	58.58
120.15 K	58.66
120.24 K	58.72
122.11 K	59.91
123.15 K	60.56
124.07 K	60.93
126.02 K	61.79
126.04 K	61.82
127.98 K	62.72
128.94 K	63.08
129.95 K	63.54
131.83 K	64.33
131.91 K	64.31
133.87 K	65.17
134.73 K	65.5
135.84 K	65.98
137.64 K	66.69
137.81 K	66.76
139.77 K	67.58
140 K	67.66
140.55 K	67.86
141.74 K	68.33
143.47 K	69
143.71 K	69.08
145.68 K	69.88
146.39 K	70.15
147.65 K	70.61
149.31 K	71.26
149.62 K	71.38
151.6 K	72.1
152.23 K	72.33
153.57 K	72.82
155.16 K	73.39
155.55 K	73.55
157.52 K	74.24
158.09 K	74.43
159.5 K	74.94
160 K	75.12
161.02 K	75.46
161.47 K	75.6
163.45 K	76.3
163.95 K	76.42
165.43 K	76.95
166.88 K	77.42
167.41 K	77.62
169.38 K	78.25
169.82 K	78.4
171.36 K	78.94
172.76 K	79.32
173.34 K	79.5
175.32 K	80.12
175.7 K	80.25
177.31 K	80.7
178.65 K	81.16
179.29 K	81.37
180 K	81.58
181.27 K	81.94
181.59 K	82.04
183.25 K	82.48
184.54 K	82.86
185.23 K	83.08
187.21 K	83.64
187.49 K	83.73
189.2 K	84.23
190.44 K	84.56
191.18 K	84.81
193.16 K	85.14
193.39 K	85.31
195.15 K	85.81
196.34 K	86.05
197.13 K	86.3
199.11 K	86.89
199.29 K	86.89
200 K	87.05
201.1 K	87.39
202.24 K	87.63
203.08 K	87.88
205.07 K	88.38
205.19 K	88.38
207.05 K	88.8
208.15 K	89.05
209.04 K	89.3
211.03 K	89.8
211.11 K	89.8
213.01 K	90.21
214.07 K	90.46
215 K	90.71
216.99 K	91.13
217.03 K	91.13
218.97 K	91.54
219.98 K	91.79
220 K	91.79
220.96 K	92.04
222.94 K	92.46
222.95 K	92.46
224.93 K	92.87
225.89 K	93.04
226.92 K	93.29
228.85 K	93.7
228.91 K	93.62
230.9 K	94.12
231.81 K	94.2
232.89 K	94.45
234.77 K	94.87
234.87 K	94.87
236.86 K	95.28
237.72 K	95.45
238.17 K	95.62
238.8 K	95.53
240 K	95.87
240.35 K	95.95
240.69 K	95.95
242.83 K	96.36
243.65 K	96.53
245.3 K	96.78
246.61 K	97.03
247.77 K	97.28
249.58 K	97.53
250.25 K	97.61
252.54 K	98.11
252.72 K	98.11
255.2 K	98.19
255.52 K	98.28
257.67 K	98.78
258.49 K	98.86
260 K	99.11
260.15 K	99.19
261.46 K	99.44
262.63 K	99.61
264.43 K	99.86
265.1 K	100
267.4 K	100.4
267.57 K	100.4
270.05 K	100.8
270.36 K	100.9
272.53 K	101.2
273.33 K	101.3
275.01 K	101.6
276.31 K	101.8
277.49 K	102
279.28 K	102.3
279.96 K	102.3
280 K	102.3
282.25 K	102.7
282.44 K	102.6
284.92 K	103
285.23 K	103.1
287.4 K	103.4
288.2 K	103.5
289.88 K	103.8
291.17 K	104
292.35 K	104.1
294.15 K	104.4
294.83 K	104.5
297.13 K	105
297.32 K	105
298.15 K	105.1
299.8 K	105.2
300 K	105.2
300.11 K	105.2
302.28 K	105.4
303.09 K	105.6
304.77 K	105.6
304.91 K	105.8
306.07 K	106
307.26 K	106
307.89 K	106.2
309.06 K	106.4
309.74 K	106.4
310.86 K	106.6
312.04 K	106.7
312.23 K	106.7
313.84 K	106.8
314.72 K	106.9
315.03 K	107
316.82 K	107.2
317.21 K	107.2
318.02 K	107.3
319.7 K	107.4
319.8 K	107.6
320 K	107.6
321.01 K	107.7
322.19 K	107.8
322.77 K	108
324 K	108.1
324.68 K	108.2
325.75 K	108.3
326.99 K	108.4
327.18 K	108.3
329.67 K	108.6
331.72 K	108.9
334.69 K	109.2
337.67 K	109.5
340 K	109.7
340.65 K	109.8
343.63 K	110
346.62 K	110.3
349.6 K	110.6
352.59 K	110.8
355.58 K	111.1
358.57 K	111.4
360 K	111.5
361.56 K	111.6
364.55 K	111.9
367.55 K	112
370.55 K	112.2
373.55 K	112.5
376.55 K	112.7
379.55 K	113
380 K	113
382.56 K	113.2
385.56 K	113.4
388.57 K	113.6
391.59 K	113.8
394.6 K	113.9
397.62 K	114
400.65 K	114.2
